The term EC70 denotes the concentration at which the effect reaches the 70% level. Usually EC50 stands for the midpoint of the concentration-response curve.

These results are taken from PMC7973644, “Bioanalytical screening of low levels of dioxins and dioxin-like PCBs in pig meat (pork) for checking compliance with EU maximum and action levels using highly sensitive “third generation” recombinant H4L7.5c2 rat hepatoma cells” (Environmental Sciences Europe, 2021).

The test system of series [1] is aryl hydrocarbon receptor (AhR). Further details: method as in PMID 33614386, PMID 18969555, PMID 18969548. As to conditions: CALUX; relative to 2,3,7,8-TCDD; cited from earlier work.
On the set-up of series [2]: method as in PMID 15083163. To be noted: adult humans; cited from earlier work.
Series [3] concerns the target T1, aryl hydrocarbon receptor (AhR) (Mus musculus, UniProt P30561). The series is described as follows: CALUX luciferase reporter bioassay, H1L6.1c2 mouse hepatoma cells (4 DREs). It counts as cell-based. As to conditions: H1L6.1c2 mouse (4 DREs). An excerpt: (§1) We compared both key indicators of assay performance, calibrator bias and imprecision, and the resulting working range for H4L7.5c2 rat hepatoma cells (this study) with those obtained using various other cell lines (4 DREs: H4L1.1c4 rat, DR-CALUX rat, H1L6.1c2 mouse hepatoma cells; 20 DREs: H1L7.5c3 mouse hepatoma cells) previously evaluated (Table 2). Commercially available DR-CALUX cells, a recombinant rat hepatoma (H4IIe)-based cell line (H4L1.1c10), were obtained from BioDetection Systems (The Netherlands). When using CALUX cell lines that contain 4 DREs, the lower limit of working range (LLOW), or the concentration above which results may be reported, is typically close to 1 pmol/L if both RLU-based and concentration-based criteria for bias and imprecision are fulfilled (assay working range B in Table 2). […] When utilizing H1L7.5c3 mouse hepatoma cells, which also contain 20 DREs, the LLOW equals 0.3 pmol/L, as well. However, the range in which assay concentrations match all criteria for bias and imprecision is smaller with an upper limit of working range (ULOW) of just 10 pmol/L. It follows that the “3rd generation” H4L7.5c2 rat hepatoma cells provide the most suitable working range of the assay for low sample concentrations, regardless of whether only the current EU RLU-based imprecision requirements are met or whether bias-related and concentration-based criteria are additionally observed (Table 2).
(§2) While absolute induction is driven by the efficiency of gene expression, fold induction is the ratio between the cell response (RLU) induced by a calibration standard, or by AhR-active dioxin-like compounds present in a sample extract, and the unspecific assay background response (RLU). […] Furthermore, the Chi-square-to-degrees of freedom ratio (χ^2/DF, with χ^2 ~ WSSR) known to be a stand-alone index characterizing the quality of a model fit is provided for each cell line. […] The latter is the case for each cell line (Table 3). […] An explanation can be found in the fact that triplicate standard deviations were used as rough estimates.

Series [4] concerns the target T2, aryl hydrocarbon receptor (AhR) (Rattus norvegicus, UniProt P41738).
T2 construct: endogenous in cells; host or cells: H4L7.5c2, H4L1.1c4 and DR-CALUX (H4L1.1c10, H4IIe-based) recombinant rat hepatoma cells
T2 sequence (P41738 10-853): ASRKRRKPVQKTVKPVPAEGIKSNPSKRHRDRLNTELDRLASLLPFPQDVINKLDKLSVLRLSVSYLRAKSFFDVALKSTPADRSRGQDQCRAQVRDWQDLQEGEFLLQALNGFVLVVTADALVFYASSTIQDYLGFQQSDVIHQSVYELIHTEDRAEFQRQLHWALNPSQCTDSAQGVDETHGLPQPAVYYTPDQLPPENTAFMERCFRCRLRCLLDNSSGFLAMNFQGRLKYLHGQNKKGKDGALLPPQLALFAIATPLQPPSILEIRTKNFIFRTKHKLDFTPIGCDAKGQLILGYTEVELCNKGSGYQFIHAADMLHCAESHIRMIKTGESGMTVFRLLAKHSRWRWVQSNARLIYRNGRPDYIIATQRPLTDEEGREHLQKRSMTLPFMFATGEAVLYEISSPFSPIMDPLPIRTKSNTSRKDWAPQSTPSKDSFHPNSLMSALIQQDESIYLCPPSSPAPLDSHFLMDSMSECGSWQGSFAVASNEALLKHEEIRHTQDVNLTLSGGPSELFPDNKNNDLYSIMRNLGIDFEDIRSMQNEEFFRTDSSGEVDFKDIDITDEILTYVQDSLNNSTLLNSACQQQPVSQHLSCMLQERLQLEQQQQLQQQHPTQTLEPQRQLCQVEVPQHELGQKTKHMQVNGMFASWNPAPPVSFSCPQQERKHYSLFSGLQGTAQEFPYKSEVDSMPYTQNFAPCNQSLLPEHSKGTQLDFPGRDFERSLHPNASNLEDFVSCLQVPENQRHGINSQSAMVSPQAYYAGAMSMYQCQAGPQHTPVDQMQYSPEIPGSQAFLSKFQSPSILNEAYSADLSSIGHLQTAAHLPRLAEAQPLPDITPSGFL
Nature of the series: CALUX luciferase reporter bioassay, H4L1.1c4 rat hepatoma cells (4 DREs). To be noted: H4L1.1c4 rat (4 DREs). It counts as cell-based.
Excerpt: (§3) A “3rd generation” H4L7.5c2 recombinant rat hepatoma CALUX cell line that contains a stably transfected AhR-responsive firefly luciferase reporter gene under control of 20 dioxin responsive elements (DREs) was utilized in this study. […] H4L7.5c2 rat and other CALUX cell lines, such as H4L1.1c4 rat and […] mouse hepatoma cells (each with 4 DREs), or “3rd generation” H1L7.5c3 mouse hepatoma cells (20 DREs), are freely available for non-profit research purposes and can be obtained from Prof. Denison. These cells are also available for commercial and government screening purposes through a licensing agreement with the Hiyoshi Corporation, Omihachiman, Japan (www.calux-jp.com/english/).
as §1, §2
On the technique in general: In a reporter assay the amount or activity of a reporter protein is the signal.

Series [5] deals with T2, aryl hydrocarbon receptor (AhR). Nature of the series: DR-CALUX luciferase reporter bioassay, recombinant rat hepatoma (H4IIe)-based cells (4 DREs). It counts as cell-based. As to conditions: DR-CALUX rat (4 DREs).
Excerpt: as §1, §2

For series [6], the target named is T1, aryl hydrocarbon receptor (AhR). Nature of the series: CALUX luciferase reporter bioassay, H1L7.5c3 mouse hepatoma cells (20 DREs). In kind it is cell-based. As to conditions: H1L7.5c3 mouse (20 DREs).
Excerpt: as §3, §1, §2

Series [7] deals with T2, aryl hydrocarbon receptor (AhR). Nature of the series: CALUX luciferase reporter bioassay, H4L7.5c2 rat hepatoma cells (20 DREs). It counts as cell-based.
Excerpt: as §3
Exposure of H4L7.5c2 rat cells to dioxins, dioxin-like compounds, and other AhR agonists results in induction of luciferase reporter gene expression in a time-, concentration-, AhR-, and chemical-specific manner. The AhR signal transduction pathway in the CALUX bioassay and the molecular mechanism of activation of gene expression by 2,3,7,8-TCDD and related AhR agonists have been described in detail elsewhere. The level of luciferase expression in CALUX cell lines is directly related to the overall concentration of added AhR activators.
H4L7.5c2 rat cells of defined sub-confluent density (60–70%) were harvested with trypsin and homogeneously suspended in cell culture medium (α-MEM) containing 10% (v/v) FBS. Cells were counted in a haemocytometer, then seeded in 96-well white clear bottom culture plates (Corning, New York, USA) at approximately 25,000 cells/well. After 1 h of pre-incubation at ambient conditions in a biosafety cabinet, the cells were grown for 20–24 h at 37 °C in the presence of 5% CO2.
Individual concentrations of a 2,3,7,8-TCDD-standard dilution series (generating assay concentrations of 0.0, 0.1, 0.3, 1.0, 3.0, 10, 30, 300, and 3000 pmol/L) and the sample extracts (both in DMSO) were first added to incubation medium and mixed, and the mixtures subsequently added in triplicate to 96-well plates containing H4L7.5c2 cells. The ability of the bioassay target compounds to adhere to the walls and bottom of the wells can lead to cells in individual wells of a triplicate being dosed with slightly different amounts of AhR-active compounds, leading to increased triplicate RSD values. Well-to-well variability of the cell response also further depends on edge effects commonly observed across 96-well microplates. For a given cell system, inhomogeneous dosing of triplicates and edge effects are some of the main drivers for the assay working range, within which triplicate RSD values are subject to defined limitations (RSD < 15%). Especially, its bottom end should be as low as possible for the present application. Each batch of plates was therefore pre-tested for satisfactorily low and reproducible edge effects. The latter was further reduced by a 1 h pre-incubation under ambient conditions in the safety cabinet immediately after seeding the cells, resulting in an even distribution of the cells in each well. The plates were then placed in an incubator on a 1.5 mm-thin copper sheet on top of the incubator shelf. Copper not only has bactericidal properties, but being a fast heat conductor, it also helps to avoid the formation of patterns in the measured cell response (another type of "edge effects"), caused by temperature gradients near heat-radiating walls or by occasional opening of the incubator door. For preparing the dose media, we applied a validated, fast, and reproducible pipetting procedure followed by thorough re-mixing immediately before dosing the cells only into the inner 60 wells of 96-well plates. Cell culture medium was added to the cells in the 36 outer wells to maintain a balanced atmosphere above all wells allowing homogeneous evaporation rates across the plate during incubation. […]

[8] abbreviates: H4L7.5c2 rat (20 DREs), 5-PL fit by WSSR regression.

T1 sequence (P30561 10-848): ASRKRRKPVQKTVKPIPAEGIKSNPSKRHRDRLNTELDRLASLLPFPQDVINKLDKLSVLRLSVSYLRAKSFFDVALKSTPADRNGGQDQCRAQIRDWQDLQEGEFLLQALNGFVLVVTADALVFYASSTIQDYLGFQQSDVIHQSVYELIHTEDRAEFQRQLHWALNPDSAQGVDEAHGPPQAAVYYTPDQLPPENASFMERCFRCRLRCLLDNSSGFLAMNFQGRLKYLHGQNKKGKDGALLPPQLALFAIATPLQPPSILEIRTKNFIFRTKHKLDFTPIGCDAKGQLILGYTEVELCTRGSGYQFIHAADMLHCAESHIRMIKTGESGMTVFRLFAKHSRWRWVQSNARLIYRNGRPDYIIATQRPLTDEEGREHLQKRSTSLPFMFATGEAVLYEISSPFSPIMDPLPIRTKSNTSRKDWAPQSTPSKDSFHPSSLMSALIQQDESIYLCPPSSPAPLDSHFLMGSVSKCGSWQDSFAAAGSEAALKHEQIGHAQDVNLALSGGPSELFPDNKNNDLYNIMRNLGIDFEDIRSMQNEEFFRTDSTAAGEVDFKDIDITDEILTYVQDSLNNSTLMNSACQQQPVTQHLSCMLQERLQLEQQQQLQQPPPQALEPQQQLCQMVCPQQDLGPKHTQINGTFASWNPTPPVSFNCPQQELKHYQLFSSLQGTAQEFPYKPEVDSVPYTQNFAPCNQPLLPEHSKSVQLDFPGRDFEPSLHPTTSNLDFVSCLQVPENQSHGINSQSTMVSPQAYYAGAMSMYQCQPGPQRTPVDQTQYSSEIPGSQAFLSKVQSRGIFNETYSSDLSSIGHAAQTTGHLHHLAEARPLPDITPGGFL
T1 sequence (P53762 2-791 partner): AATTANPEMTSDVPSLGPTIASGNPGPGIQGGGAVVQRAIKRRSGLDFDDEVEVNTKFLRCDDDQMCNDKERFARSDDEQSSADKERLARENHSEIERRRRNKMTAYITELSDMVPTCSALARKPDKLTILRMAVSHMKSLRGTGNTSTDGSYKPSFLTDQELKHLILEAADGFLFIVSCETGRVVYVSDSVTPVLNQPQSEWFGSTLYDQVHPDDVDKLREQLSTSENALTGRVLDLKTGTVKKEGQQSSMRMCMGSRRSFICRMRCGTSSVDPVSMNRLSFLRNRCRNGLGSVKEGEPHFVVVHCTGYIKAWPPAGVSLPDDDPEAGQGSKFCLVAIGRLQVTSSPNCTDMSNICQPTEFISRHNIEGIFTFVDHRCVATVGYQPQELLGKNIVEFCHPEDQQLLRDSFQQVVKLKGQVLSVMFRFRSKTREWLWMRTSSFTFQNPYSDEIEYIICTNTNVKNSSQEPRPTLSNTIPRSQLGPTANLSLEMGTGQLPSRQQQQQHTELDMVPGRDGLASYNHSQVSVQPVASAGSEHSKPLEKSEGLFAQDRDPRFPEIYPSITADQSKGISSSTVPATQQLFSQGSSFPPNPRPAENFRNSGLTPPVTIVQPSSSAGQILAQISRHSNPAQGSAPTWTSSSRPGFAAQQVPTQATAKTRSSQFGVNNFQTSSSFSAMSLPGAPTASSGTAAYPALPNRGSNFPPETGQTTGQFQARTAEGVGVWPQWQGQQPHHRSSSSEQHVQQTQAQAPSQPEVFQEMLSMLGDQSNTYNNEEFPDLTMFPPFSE

On to `Clc1ccc(-c2cc(Cl)c(Cl)c(Cl)c2)cc1Cl` [PCB 126], for which the “Relative potency (REP) or response of the cell bioassay compared to the response to 2,3,7,8-TCDD” value in series [1] was “approximately 40%”.
Take `Clc1cc2c(cc1Cl)Oc1cc(Cl)c(Cl)cc1O2` [2,3,7,8-TCDD, 2,3,7,8-tetrachlorodibenzo-p-dioxin]: the half-life in series [2] was 3 to 10 years. Also, the “Fold induction at 0.3 pmol/L” value is on record as 1.12 in series [3] (0.3 pmol/L); 1.33 in series [4] (0.3 pmol/L); 1.16 in series [5] (0.3 pmol/L); 1.10 in series [6] (0.3 pmol/L); 1.46 in series [7] (H4L7.5c2 rat (20 DREs), 0.3 pmol/L). Besides, the “Fold induction at 1.0 pmol/L” value is reported as 1.56 in series [3] (1.0 pmol/L); 2.44 in series [4] (1.0 pmol/L); 1.53 in series [5] (1.0 pmol/L); 1.62 in series [6] (1.0 pmol/L); 4.47 in series [7] (H4L7.5c2 rat (20 DREs), 1.0 pmol/L). The “Asymmetry factor (e)” value in series [3] (5-PL fit) is given as 1.42; in series [4] (5-PL fit), 1.81; in series [5] (5-PL fit) it was 0.63; in series [6] (5-PL fit), 1.15; in series [7] (H4L7.5c2 rat (20 DREs), 5-PL fit), 1.51. Also, the EC70 turned out to be 0.0505 nM in series [3] (5-PL fit by WSSR regression); 0.0198 nM in series [4] (5-PL fit by WSSR regression); 0.014 nM in series [5] (5-PL fit by WSSR regression); 0.00921 nM in series [6] (5-PL fit by WSSR regression); 0.0223 nM in series [7] (setting [8]). For the same compound, the “Inflection point (c)” value is listed as 15.0 pmol/L in series [3] (5-PL fit by WSSR regression); 3.67 pmol/L in series [4] (5-PL fit by WSSR regression); 12.0 pmol/L in series [5] (5-PL fit by WSSR regression); 4.63 pmol/L in series [6] (5-PL fit by WSSR regression); 7.22 pmol/L in series [7] (setting [8]). Also, the Maximum fold induction in series [3] (5-PL fit by WSSR regression) is listed as 31.2; in series [4] (5-PL fit by WSSR regression), 20.6; in series [5] (5-PL fit by WSSR regression), 8.75; in series [6] (5-PL fit by WSSR regression) it was 10.5; in series [7] (setting [8]), 136. Also, the “Slope (b)” value in series [3] (Hill coefficient of 5-PL fit) is on record as 1.03; in series [4] (Hill coefficient of 5-PL fit), 0.90; in series [5] (Hill coefficient of 5-PL fit), 1.70; in series [6] (Hill coefficient of 5-PL fit), 1.48; in series [7] (H4L7.5c2 rat (20 DREs), Hill coefficient of 5-PL fit), 1.17. Also, the 50% effective concentration (EC50) in series [3] (H1L6.1c2 mouse hepatoma CALUX cells (4 DREs), 5-PL fit by WSSR regression) came out at 0.0235 nM; in series [4] (5-PL fit by WSSR regression) it was 0.00552 nM; in series [5] (5-PL fit by WSSR regression) it was 0.00789 nM; in series [6] (H1L7.5c3 mouse hepatoma CALUX cells (20 DREs), 5-PL fit by WSSR regression), 0.00528 nM; in series [7] (setting [8]), 0.0114 nM. In addition, the Maximum response in series [7] (H4L7.5c2 rat hepatoma cells, corrected for the assay background response, 5-PL fit) was 4730 RLUs.
